Data published in paper PMC3514216, “SRC Homology 2 Domain Binding Sites in Insulin, IGF-1 and FGF receptor mediated signaling networks reveal an extensive potential interactome” (Cell Communication and Signaling : CCS, 2012).
Changes are numbered by the printed parent chain. Like-named read-outs stand apart in the source and are kept apart here. One block for each compound: values may come before it.

How the values were obtained:
[1] = target: T1, CrkL SH2 domain (Homo sapiens, UniProt P46109); parameters: method as in earlier work; conditions: SH2 protein microarray; N.B. = non binding; read-out: Protein Microarray (Macbeath) – KD; cited from earlier work
T1 sequence (P46109 14-102 limits assumed): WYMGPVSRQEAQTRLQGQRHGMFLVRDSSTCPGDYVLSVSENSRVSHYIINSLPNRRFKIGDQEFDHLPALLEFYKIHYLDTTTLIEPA

[2] = target: T2, Abl1 SH2 domain (Homo sapiens, UniProt P00519); parameters: method as in earlier work; conditions: SH2 protein microarray; N.B. = non binding; read-out: Protein Microarray (Macbeath) – KD; cited from earlier work
T2 sequence (P00519 127-217 limits assumed): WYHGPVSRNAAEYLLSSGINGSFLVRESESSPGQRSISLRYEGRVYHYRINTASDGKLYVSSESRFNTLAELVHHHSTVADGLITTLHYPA

[3] = target: T3, Grb2 SH2 domain (Homo sapiens, UniProt P62993); parameters: method as in earlier work; conditions: SH2 protein microarray; N.B. = non binding; read-out: Protein Microarray (Macbeath) – KD; cited from earlier work
T3 sequence (P62993 60-152 limits assumed): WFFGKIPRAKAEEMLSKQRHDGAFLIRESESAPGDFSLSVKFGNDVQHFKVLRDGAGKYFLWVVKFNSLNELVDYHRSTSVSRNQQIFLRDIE

[4] = target: T4, Abl2 SH2 domain (Homo sapiens, UniProt P42684); parameters: method as in earlier work; conditions: SH2 protein microarray; N.B. = non binding; read-out: Protein Microarray (Macbeath) – KD; cited from earlier work
T4 sequence (P42684 173-263 limits assumed): T2 sequence (P00519 127-217 limits assumed) with N9S, G18L, R35L, A53T, S54A, L58V, S61T, S62A, N67S, I84V

[5] = target: T3, Grb2 SH2 domain; experiment: Fluorescence polarization solution binding; conditions: Rhodamine B-labeled peptide, GST-SH2, Beacon 2000, read-out: Affinity (KD)
Source text: (§1) To verify the binding results obtained from addressable peptide arrays we employed an orthogonal method of determining SH2 interactions with peptide ligands. We measured the dissociation constants of 60 binary SH2-peptide pairs in solution by fluorescence polarization (Table 2, Additional file 2: Figures S3A-C).
(§2) Peptides were synthesized using FMOC-chemistry onto pre-loaded tenta-gel resins. Peptides were then labeled with Rhodamine B (Abbey Color) and then cleaved using trifluoroacetic acid. Peptides were lyophilized and then purified using a LC/MS (Agilent 2100). Dissociation constants were measured using the Beacon 2000 (Invitrogen) as previously described.
(§3) Binding Affinities determined by Fluorescence Polarization. Rhodamine B-labeled peptides were mixed with varying concentrations of GST-tagged SH2 domains. Fluorescence polarization measurements were read on a Beacon 2000 (Invitrogen). The curves were fit to a Michaelis-Menten equation to calculate the dissociation constant, KD. […] (C) Affinity measurements that fell below the 2X mean intensity and were considered array negative on the SPOT array.

[6] = target: PI3K1_N SH2 domain (Homo sapiens, UniProt P27986); experiment: Fluorescence polarization solution binding; conditions: Rhodamine B-labeled peptide, GST-SH2, Beacon 2000, read-out: Affinity (KD)
Chain of PI3K1_N SH2 domain (P27986 333-428 limits assumed): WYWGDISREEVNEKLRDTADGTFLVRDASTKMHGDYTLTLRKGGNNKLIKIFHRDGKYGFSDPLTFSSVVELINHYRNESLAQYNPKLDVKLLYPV
Source text: as §1, §2, §3

[7] = target: T1, CrkL SH2 domain; experiment: Fluorescence polarization solution binding; conditions: Rhodamine B-labeled peptide, GST-SH2, Beacon 2000, read-out: Affinity (KD)
Source text: as §1, §2, §3

[8] = target: T5, Nck1 SH2 domain (Homo sapiens, UniProt P16333); experiment: SPOT peptide array; format: binding; conditions: GST-SH2 0.25 μM, membrane-bound peptide, 1 mM DTT, LiCor read-out
Procedure, shortened: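 Semi-quantitative binding scored against the membrane average: positive above 3× mean, negative below mean. Probe was a GST–SH2 fusion on SPOT arrays of pTyr 11-mers, detected with anti-GST antibody plus near-infrared secondary.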

[9] = target: T5, Nck1 SH2 domain; parameters: method as in PMID 16636066; conditions: peptide similar to the TIR10 peptide (EHIpYDEVAAD); read-out: Affinity (KD); cited from earlier work
[10] = target: T6, Rasa1_C SH2 domain (Homo sapiens, UniProt P20936); experiment: Fluorescence polarization solution binding; conditions: Rhodamine B-labeled peptide, GST-SH2, Beacon 2000, read-out: Affinity (KD)
T6 sequence (P20936 351-441 limits assumed): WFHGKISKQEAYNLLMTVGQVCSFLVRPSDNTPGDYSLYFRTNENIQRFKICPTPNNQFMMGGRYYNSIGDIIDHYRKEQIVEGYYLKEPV

[11] = target: Rasa1_N SH2 domain (Homo sapiens, UniProt P20936); experiment: Fluorescence polarization solution binding; conditions: Rhodamine B-labeled peptide, GST-SH2, Beacon 2000, read-out: Affinity (KD)
Chain of Rasa1_N SH2 domain (P20936 181-272 limits assumed): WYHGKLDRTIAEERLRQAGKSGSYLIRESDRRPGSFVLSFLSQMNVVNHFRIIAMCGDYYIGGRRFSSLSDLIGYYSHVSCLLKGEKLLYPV

[12] = target: T7, Ptpn11_N SH2 domain (Homo sapiens, UniProt Q06124); experiment: Fluorescence polarization solution binding; conditions: Rhodamine B-labeled peptide, GST-SH2, Beacon 2000, read-out: Affinity (KD)
T7 sequence (Q06124 6-102 limits assumed): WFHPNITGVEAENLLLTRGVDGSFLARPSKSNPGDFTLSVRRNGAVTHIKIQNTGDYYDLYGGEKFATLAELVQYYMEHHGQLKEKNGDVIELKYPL
Source text: as §1, §2, §3

[13] = target: PI3K1_C SH2 domain (Homo sapiens, UniProt P27986); experiment: Fluorescence polarization solution binding; conditions: Rhodamine B-labeled peptide, GST-SH2, Beacon 2000, read-out: Affinity (KD)
Chain of PI3K1_C SH2 domain (P27986 624-718 limits assumed): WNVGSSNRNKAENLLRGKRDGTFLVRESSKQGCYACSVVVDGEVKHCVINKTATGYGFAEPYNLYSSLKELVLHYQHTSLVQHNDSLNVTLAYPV
Source text: as §1, §2, §3

Compound: QARRPPGLEpYCYNPSHND* (QARRPPGLEYCYNPSHND) [FGFR1 Y583 phosphopeptide; Cys replaced with Ala or Ser on peptide arrays]
Kd [1]: 1550 nM
Kd [2]: 1800 nM
Kd [3]: 1620 nM
Kd [4]: 340 nM

Kd [5]: > 50000 nM
Kd [6]: 15000 nM
Kd [7]: > 50000 nM
Compound: CC[C@H](C)[C@H](NC(=O)[C@H](Cc1ccc(OP(=O)(O)O)cc1)NC(=O)[C@H](CC(N)=O)NC(=O)[C@H](CC(C)C)NC(=O)CNC(=O)[C@@H](N)CC(N)=O)C(=O)N[C@@H](CC(=O)O)C(=O)N[C@@H](CC(C)C)C(=O)N[C@@H](CC(=O)O)C(=O)N[C@@H](CC(C)C)C(=O)N[C@H](C(=O)O)C(C)C [NGLNpYIDLDLV]

Compound: GLDEpYDEVPMP [11-mer phosphotyrosine control peptide, B3AT (Y921), similar to the TIR10 peptide, reference compound]
Array positive [8]: Yes (Array-positive binding was ascribed to interactions with intensities greater than three times the array mean)
Kd [9]: 60 nM

Kd [10]: 1390 nM
Kd [11]: 410 nM
Kd [12]: > 50000 nM
Kd [13]: 13000 nM
Kd [6]: 1850 nM
Compound: CC(C)C[C@H](NC(=O)[C@H](CCC(=O)O)NC(=O)[C@H](Cc1ccc(OP(=O)(O)O)cc1)NC(=O)CNC(=O)[C@H](CCC(=O)O)NC(=O)[C@H](CCC(=O)O)NC(=O)[C@@H](N)CCCCN)C(=O)N1CCC[C@H]1C(=O)N[C@@H](Cc1ccc(O)cc1)C(=O)N[C@@H](CC(N)=O)C(=O)N1CCC[C@H]1C(=O)O [KEEGpYELPYNP]
